The test system of data set [1] is VeroE6 cells.
Data set [2] has as its system Influenza A Virus H1N1v strain A/Regensburg/D6/09 (H1N1v). In kind it is cell-based.

The results in this text go back to patent US20240366712A1, “G[…] USE IN A METHOD OF PREVENTING OR TREATING INFECTIONS WITH R[…]” (priority 2021, published 2024).

`CO[C@H]1C[C@@H]2CC[C@@H](C)[C@@](O)(O2)C(=O)C(=O)N2CCCC[C@H]2C(=O)O[C@H]([C@H](C)C[C@@H]2CC[C@@H](O)[C@H](OC)C2)CC(=O)[C@H](C)/C=C(\C)[C@@H](O)[C@@H](OC)C(=O)[C@H](C)C[C@H](C)/C=C/C=C/C=C/1C` [Rapamycin, reference compound]: the “Effect on VeroE6 cell viability compared to mock control” value in data set [1] is “slightly decreased the viability of cells”.

Griffithsin [unencapsulated GRFT]: in data set [2], the “Dilution at which PFU reduction reached the detection limit” value is “did not reach the detection limit at 1:2 dilution” and the “Total GRFT concentration at which PFU reduction reached the detection limit” value was over 1.325 mg/mL. In data set [2] (A549 cells, different dilutions/concentrations, n=3 per reading point), the “PFU reduction in virus infected cells” value was “concentration dependent PFU reduction”. The “Toxic effect on VeroE6 cell viability compared to mock control” value in data set [1] is given as “no specific toxic effect”.
